Measured values as given in ChEMBL document CHEMBL4382233, “Discovery of novel arylethenesulfonyl fluorides as potential candidates against methicillin-resistant of Staphylococcus aureus (MRSA) for overcoming multidrug resistance of bacterial infections” (2019).
In brackets after ≈: the same amount, converted by molar mass.

Experiments:
Assay type in all cases: functional
[1] = test system: Staphylococcus epidermidis; test: Antibacterial activity against methicillin-resistant Staphylococcus epidermidis assessed as zone of inhibition at 20 ug/mL after 24 hrs by agar disc diffusion method; details: read-out: IZ
[2] = test system: Staphylococcus haemolyticus; test: Antibacterial activity against methicillin-resistant Staphylococcus haemolyticus after overnight incubation by micro broth dilution analysis
[3] = test system: Staphylococcus epidermidis; test: Antibacterial activity against methicillin-resistant Staphylococcus epidermidis after overnight incubation by micro broth dilution analysis
[4] = test system: Staphylococcus haemolyticus; test: Antibacterial activity against methicillin-resistant Staphylococcus haemolyticus assessed as zone of inhibition at 50 ug/mL after 24 hrs by agar disc diffusion method; details: read-out: IZ
Staphylococcus aureus [5] = test: Antibacterial activity against methicillin-resistant Staphylococcus aureus after overnight incubation by micro broth dilution analysis
Staphylococcus aureus [6] = test: Antibacterial activity against methicillin-resistant Staphylococcus aureus assessed as zone of inhibition at 50 ug/mL after 24 hrs by agar disc diffusion method; details: read-out: IZ
[7] = test system: Staphylococcus epidermidis; test: Antibacterial activity against methicillin-resistant Staphylococcus epidermidis assessed as zone of inhibition at 800 ng/mL after 24 hrs by agar disc diffusion method; details: read-out: IZ
[8] = test system: Staphylococcus epidermidis; test: Antibacterial activity against methicillin-resistant Staphylococcus epidermidis assessed as zone of inhibition at 200 ng/mL after 24 hrs by agar disc diffusion method; details: read-out: IZ
[9] = test system: Staphylococcus epidermidis; test: Antibacterial activity against methicillin-resistant Staphylococcus epidermidis assessed as zone of inhibition at 400 ng/mL after 24 hrs by agar disc diffusion method; details: read-out: IZ
Staphylococcus aureus [10] = test: Antibacterial activity against methicillin-resistant Staphylococcus aureus assessed as zone of inhibition at 400 ng/mL after 24 hrs by agar disc diffusion method; details: read-out: IZ
Staphylococcus aureus [11] = test: Antibacterial activity against methicillin-resistant Staphylococcus aureus assessed as zone of inhibition at 200 ng/mL after 24 hrs by agar disc diffusion method; details: read-out: IZ
Staphylococcus aureus [12] = test: Antibacterial activity against methicillin-resistant Staphylococcus aureus assessed as zone of inhibition at 800 ng/mL after 24 hrs by agar disc diffusion method; details: read-out: IZ

SMILES	zone of inhibition at 20 µg/mL [1]	MIC99 [2]	MIC99 [3]	zone of inhibition at 50 µg/mL [4]	MIC99 (Staphylococcus aureus [5])	zone of inhibition at 50 µg/mL (Staphylococcus aureus [6])	zone of inhibition at 0.8 µg/mL [7]	zone of inhibition at 0.2 µg/mL [8]	zone of inhibition at 0.4 µg/mL [9]	zone of inhibition at 0.4 µg/mL (Staphylococcus aureus [10])	zone of inhibition at 0.2 µg/mL (Staphylococcus aureus [11])	zone of inhibition at 0.8 µg/mL (Staphylococcus aureus [12])
O=S(=O)(F)/C=C/c1ccc(Br)cc1	7.3 mm	66.1 µg/mL (≈ 249 µM)	0.837 µg/mL (≈ 3.16 µM)	6.1 mm	48.2 µg/mL (≈ 182 µM)	7.5 mm	7.5 mm	5.2 mm	6.2 mm			
O=S(=O)(F)/C=C/c1ccc(OC(F)(F)F)cc1	17.6 mm	61.2 µg/mL (≈ 227 µM)	0.81 µg/mL (≈ 3 µM)	4.3 mm	40.2 µg/mL (≈ 149 µM)	6.1 mm	10.4 mm	7.1 mm	8.3 mm			
O=S(=O)(F)/C=C/c1cccc(F)c1	3.5 mm	44.1 µg/mL (≈ 216 µM)	72.3 µg/mL (≈ 354 µM)	4.2 mm	15.2 µg/mL (≈ 74.3 µM)	9.1 mm				4.4 mm	3.5 mm	5.1 mm
CC(=O)c1ccccc1/C=C/S(=O)(=O)F	10.2 mm	50.2 µg/mL (≈ 220 µM)	0.816 µg/mL (≈ 3.58 µM)	4.1 mm	16.1 µg/mL (≈ 70.7 µM)	8.2 mm	10.5 mm	3.3 mm	4.2 mm	4.1 mm	3.5 mm	5.4 mm
O=S(=O)(F)/C=C/c1ccc(C(F)(F)F)cc1	12.1 mm	60.2 µg/mL (≈ 237 µM)	0.812 µg/mL (≈ 3.19 µM)	3.5 mm	0.815 µg/mL (≈ 3.21 µM)	9.1 mm	11.4 mm	9.1 mm	10.1 mm	10.1 mm	6.2 mm	15.1 mm
Cc1ccc(/C=C/S(=O)(=O)F)c(C)c1	10.7 mm	43.3 µg/mL (≈ 202 µM)	0.813 µg/mL (≈ 3.79 µM)	3.5 mm	43.1 µg/mL (≈ 201 µM)	6.5 mm	11.1 mm	2.5 mm	6.2 mm			
